{
  "source": "paper PMC10858199",
  "about": "“Amyloid-β aggregates activate peripheral monocytes in mild cognitive impairment” (Nature Communications, 2024)",
  "key": {"[1]": {"target": "CR3 I-domain", "test": "SPR, CR3 I domain binding to immobilized Aβ or iC3b", "parameters": "species or system human", "conditions": "pH 7.4, 1 mM MgCl2; EVILFIT 2D distribution", "experimental": "(§1) SPR assays were performed using CM-4 chips (cat no. 50-105-5323, Cytiva) and run in the BIAcore 3000 instrument (GE Health Care). As described, the chip surfaces were coupled with monomeric Aβ, aggregated Aβ, or iC3b using an amine-coupling chemistry method. A reference surface was prepared by coupling the surfaces with ethanolamine rather than protein. The CR3 and CR4 I domains were stabilized in the activated conformation by mutation of a C-terminal isoleucine residue to glycine and prepared as described earlier. […] The prepared solutions were injected over the surfaces; the contact time (tc) was 180 s, and the following dissociation phase time was 400 s. […] The distribution P (kd, KD) was calculated using the discretization of the equation:1 STotal=∫KDminKDmax∫koffminkoffmaxSkoff,KD,canalyte,tPkoff,KDdkoffdKD where S is the SPR signal. […] This was done through a global fit to the association and dissociation traces at the analyte concentrations (canalyte) mentioned above. The algorithm used Tikhonov regularization as described[44] at a confidence level of p = 0.95 to determine the most parsimonious distribution consistent with the data, showing only features essential to fit the data."}, "[2]": {"target": "T1, CR4 I-domain (Homo sapiens, UniProt P20702, I333G)", "T1 construct": "made in house", "T1 sequence (P20702 165-339 I333G limits assumed)": "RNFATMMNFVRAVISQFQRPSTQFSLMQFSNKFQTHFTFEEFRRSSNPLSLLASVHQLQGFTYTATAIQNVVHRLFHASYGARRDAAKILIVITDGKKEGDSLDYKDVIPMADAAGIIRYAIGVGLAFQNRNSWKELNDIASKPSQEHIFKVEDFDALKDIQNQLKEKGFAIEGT", "test": "SPR, CR4 I domain binding to immobilized Aβ or iC3b", "conditions": "even at high concentrations of the CR4 I-domain (up to 10000 nM)", "experimental": "as §1"}, "[3]": {"tested_on": "iPSC-derived microglia", "test": "Lysosomal activity of iPSC-derived microglia (LysoTracker)", "type": "cell-based, human", "conditions": "Aβ 5 µg/mL, 60 min, 37 °C", "method": "(§2) For microglial differentiation, the human induced pluripotent stem cell (iPSC) line BIHi043A-XM001 was used[56]. Cells were cultured on Matrigel™ (cat. no. 356234, Corning)-coated culture plates in Essential 8™ Flex Medium (cat. no. A2858501, Gibco). The culture medium was changed daily, and cells were passaged in clusters every 3–4 days at a density of 80% using 0.5 mM EDTA/PBS. iPSCs were differentiated into microglia using the protocol described[72]. First, iPSCs were differentiated into hematopoietic progenitors (HP) using STEMdiff™ Hematopoietic Kit (cat. No. 05310, Stem Cell Technologies). On Day −1, iPSCs with a 70–80% density were passaged with ReLeSR™ (cat. no. 05872, Stem Cell Technologies) into E8 flex containing Matrigel-coated 6-well plates. Clusters of 100 cells were seeded at the desired density of 50–100 per well. At Day 0, in wells with 40–80 clusters, the E8 flex medium was replaced with 2 mL medium A. On Day 2, 1 mL of medium A was added to the well. On Day 3, the medium was removed and replaced with 2 mL Medium B. On Days 5, 7, and 9, 1 mL of medium B was added to the well. […] The adherent cells were gently washed off to increase the yield using a 5 mL serological pipette. […] On Days 13, 15, 17, 19, and 21, 1 mL of microglia differentiation medium was added to the well. […] On Days 38–42, the microglia were ready for functional studies. […]"}, "[4]": {"tested_on": "CR4 (CD11c)", "test": "CR4 (CD11c) surface expression on iPSC-derived microglia", "type": "cell-based, human", "conditions": "Aβ 5 µg/mL, 60 min, 37 °C", "method": "as §2"}, "[5]": {"tested_on": "CR3 (CD11b)", "test": "CR3 (CD11b) surface expression on iPSC-derived microglia", "type": "cell-based, human", "conditions": "Aβ 5 µg/mL, 60 min, 37 °C", "method": "as §2"}, "[6]": {"tested_on": "Aβ", "test": "FDM-NTA of synthetic Aβ in PBS, QD-antibody conjugates", "type": "binding, human", "conditions": "PBS pH 7.4; detected by aducanumab biosimilar; A-Aβ value on average", "experimental": "QD Ab (Ab) coupling was performed using SiteClick Qdot 655 Ab Labeling Kit (no. S10453; Molecular Probes) according to manufactures instructions. In brief, Ab, either “Aducanumab biosimilar” human IgG1,κ to aggregated Aβ (cat. no. PX-TA1335, lot. no. 040721-A01, ProteoGenix), or “Isotype control” human IgG1,κ (cat.no. HG1K, lot.no. MA14OC2803, SinoBiologicals) was concentrated in Ab preparation buffer to a concentration of 2 mg/mL or above. The buffer was simultaneously changed to 0.05 M Tris, pH 7.0. Next, carbohydrates on the Ab were modified by incubation with β-galactosidase for 4 h at 37 °C. […]\nSamples for NTA were analyzed using a NanoSight NS300 system (Malvern Panalytical). The system was configured with a 405-nm laser, a high-sensitivity scientific complementary metal–oxide–semiconductor Orca Flash 2.8/Hamamatsu C11440 camera (Malvern Panalytical), a syringe pump, and for fluorescence measurements, a 650-nm long-pass filter was used. […] The videos were collected and analyzed using NanoSight software (version 3.3 and 3.4 with a concentration upgrade; Malvern). […] The camera level was set for both scattering and fluorescence mode to a maximum of 16. […] Only samples analyzed with the same detection threshold were compared. Pure protein was analyzed in PBS/EDTA with and without a 1:20,000 dilution of anti-Aβ (Aducanumab bios.) or isotype-matched Ab-QD reporters. […]"}},
  "data": [
    {"substance": "M-Aβ: Unaggregated and mainly monomeric synthetic human Aβ", "values": [
      {"measurement": "Kd", "setting": "[1]", "value": "~79", "unit": "µM"},
      {"measurement": "koff", "setting": "[1]", "value": 0.11, "unit": "s⁻¹"},
      {"measurement": "Interaction with CR4 I-domain", "setting": "[2]", "value": "no interaction"},
      {"measurement": "Lysosomal activity of iMGs", "setting": "[3]", "value": "no such ability"},
      {"measurement": "CD11c (CR4) surface expression", "setting": "[4]", "value": "KIM127 Ab did not influence the CD11c expression"},
      {"measurement": "CD11b (CR3) surface expression", "setting": "[5]", "value": "not affected"},
      {"measurement": "Particles above 600 nm", "setting": "[6]", "value": "less than 0.5 × 10^6 particles/mL"}
    ]}
  ]
}
